Measurements taken from patent publication US20230323294A1, “DIFFERENTIATION OF CORTICAL NEURONS FROM HUMAN PLURIPOTENT STEM CELLS” (priority 2016, published 2023).

Columns and labels:
Format in all cases: cell-based, human
[1] = test system: hPSC-derived neurons; test: Survival of cultures maintained in P/S/D in the final differentiation step; details: 3 uM
[2] = test system: hPSCs; test: Neuronal induction efficiency, intracellular flow cytometry for TUJ1; details: day 13
[3] = test system: hPSCs; test: Total cell / neuron yield in culture (FIG. 1G)
Description: FIGS. 1A-1I depict illustrations, images and graphs showing the rapid induction of cortical neurons from human pluripotent stem cells using a combinatorial small molecule-based protocol. FIG. 1A is a schematic illustration of the pathway manipulations to generate neural crest versus forebrain fates and neural precursor versus accelerated neuronal fates. Protocols for the derivation of SOX10+ neural crest precursor, PAX6+ CNS precursors and BRN3A/ISL1+sensory neurons have been reported while the current invention is focused on a strategy for the rapid induction of cortical neurons. […] FIG. 1C depicts graphs of the time-course quantitative analyses of CNS (PAX6::H2B-GFP, left), NC (SOX10::GFP, middle) and placode (SIX1::H2B-GFP, right) induction under the various protocols. […] FIG. 1F is a graph showing the quantification of the TUJ1 data from FIGS. 1D and 1E at day 13 of differentiation by intracellular flow. […] FIG. 1G depicts graphs of the P and S single and combinatorial dose response analyses based on quantification of the percentages of NESTIN+ and TUJ1+ cells by intracellular flow cytometry (upper), and an estimate of the total neurons in culture per cm^2 (for every hPSC plated at day 0 under P1S5D and P8S10D conditions, ˜0.7 and 0.2 neurons were obtained respectively at day 13). […]

[4] = test system: AMPA receptors; test: Spontaneous excitatory postsynaptic currents (sEPSCs) recording; details: P1S5D+none conditions at day 40
[5] = test system: hPSCs; test: Proliferation (pH3) and cell death (cleaved Caspase 3) after P/S/D treatment; details: for cell proliferation (phospho-Histone 3): as early as 24 hrs after P/S treatment (day 3)
Description: (a) Percentage of mitotic cells expressing phospho-histone 3 (pH3) among total cells at one day after P/S/D treatment (day 3 of differentiation). (b) Percentage of apoptotic cells expressing cleaved caspase 3 (CC3) among total cells at one day after P/S/D treatment (day 3 of differentiation). The conditions highlighted in the dashed line boxes in a,b are the P1 dosage groups aligned by ascending order of S concentration. For a,b, N=4 randomly selected photo frames from each of the 2 independent batches of cell cultures. Statistical analysis was carried out using the Dunnett's multiple comparison test to compare each dosage with LSB+X at day 3 of differentiation. […] (c) Summary of grouped results in a following the order of increasing concentration of P, or increasing concentration of S (d). (e) Summary of grouped results in b following the order of increasing concentration of P, or increasing concentration of S (f). […] Black dots represent values from quantification of individual photos frames. […]
Increased total neuron yields were obtained when lower PD concentrations were combined with SU exposure in an effort to balance neuronal induction efficiency and overall cell toxicity. […] To understand whether reduced yield is due to rapid cell cycle exit or direct toxicity, we measured phospho-Histone 3 (pH3) and cleaved Caspase 3 (CC3) as markers of cell proliferation and death, respectively. […]
EdU was added to the cultures at 5 μM for a window of 48 hrs each starting at various time points of differentiation (day 8, 13, 18, 23, 28, 33), and the cells were fixed at day 40 with 4% paraformaldehyde for 20 mins. EdU was detected with the Click-iT EdU Imaging Kit (Invitrogen) according to the specifications of the manufacturer. Quantification of EdU positive and cortical layer marker positive neurons in the EdU labeling experiments, and the quantification of marker positive neurons and total cells in the long-term culture was carried out using ImageJ with ITCN plugin for nuclei quantification, combined with manual counting. […] All quantification results were plotted in Prism (version 6.0, GraphPad).

[6] = test system: hPSCs; test: qRT-PCR gene expression analysis during differentiation; details: forebrain marker, day 13
Procedure: Cells were lysed with Trizol Reagent (Life Technology) and stored in -20° C. Total RNA was extracted using phenol/chloroform and isopropanol precipitation, and dissolved in ddH2O. cDNA was made using the QuantiTech Reverse Transcription Kit (Qiagen). Quantitative RT-PCR was performed using the Mastercycler […]×2 (Eppendorf), and GAPDH was used as the housekeeping gene control for normalization. Delta Delta Ct and fold changes were calculated and results were plotted in Prism (version 6.0, GraphPad).

[7] = test system: sodium channel
[8] = additional treatment on top of PD and SU

In the case of Cc1c[nH]c(-c2cnc(NCCNc3ccc(C#N)cn3)nc2-c2ccc(Cl)cc2Cl)n1 [CHIR], the “effect on survival of cultures maintained in P/S/D” value [1] is reported as “strong pro-survival effect”.

For C[C@H](NC(=O)Cc1cc(F)cc(F)c1)C(=O)N[C@H](C(=O)OC(C)(C)C)c1ccccc1 [DAPT], the “efficiency of neuronal induction” value [2, 8] was “further increased” and the “effect on overall neuron yield” value [3, 8] was “did not negatively affect overall neuron yield”.

NS(=O)(=O)c1cccc2c1c([N+](=O)[O-])cc1nc(O)c(O)nc12 [NBQX] was tested, and the “spontaneous excitatory postsynaptic currents (sEPSCs)” value [4] was “inhibited”.

O=C(NOC[C@H](O)CO)c1ccc(F)c(F)c1Nc1ccc(I)cc1F [PD0325901, N-(2,3-dihydroxy-propoxy)-3,4-difluoro-2-(2-fluoro-4-iodo-phenylamino)-benzamide] was tested, and the “TUJ1+%” value ([2]; added to LSB+X, at high concentrations) was greater than 50%, the “cell proliferation (phospho-Histone 3)” value [5] was “reduced cell proliferation” and the FOXG1 induction [6] was “reduced the efficiency of FOXG1 induction”. For the same compound, the “yield in total cell numbers” value ([3]; at high concentrations, suggesting toxicity) was “low yield in total cell numbers”.

For Cc1c[nH]c(/C=C2\C(=O)Nc3ccccc32)c1CCC(=O)O [SU5402, 2-[(1,2-Dihydro-2-oxo-3H-indol-3-ylidene)methyl]-4-methyl-1H-pyrrole-3-pr-opanoic acid], the “cell proliferation (phospho-Histone 3)” value [5] was “reduced cell proliferation” and the “cell death (cleaved Caspase 3)” value ([5]; one day after P/S/D treatment (day 3)) was “observed only at high doses”.

For NC1=N[C@H](O)[C@H]2[C@H]3O[C@]4(O)O[C@@H]([C@@H](O)[C@@]2(N1)[C@@H]4O)[C@]3(O)CO [Tetrodotoxin], the “voltage-dependent sodium channel responses” value [7] was “blocked”.
